Test results taken from ChEMBL document CHEMBL4715724, “Novel 5-substituted-2-anilinoquinolines with 3-(morpholino or 4-methylpiperazin-1-yl)propoxy moiety as broad spectrum antiproliferative agents: Synthesis, cell based assays and kinase screening” (Bioorg Med Chem Lett, 2016).
One block for each compound: values may come before it.

Key:
CCRF-CEM = test: cells; format: functional; conditions: Homo sapiens, time 48 hrs
Description: Growth inhibition of human CCRF-CEM cells incubated for 48 hrs by sulforhodamine B assay

K562 = test: cells; format: functional; conditions: Homo sapiens, time 48 hrs
Description: Growth inhibition of human K562 cells incubated for 48 hrs by sulforhodamine B assay

SR = test: cells; format: functional; conditions: Homo sapiens, time 48 hrs
Description: Growth inhibition of human SR cells incubated for 48 hrs by sulforhodamine B assay

HOP-62 = test: cells; format: functional; conditions: Homo sapiens, time 48 hrs
Description: Growth inhibition of human HOP-62 cells incubated for 48 hrs by sulforhodamine B assay

HOP-92 = test: cells; format: functional; conditions: Homo sapiens, time 48 hrs
Description: Growth inhibition of human HOP-92 cells incubated for 48 hrs by sulforhodamine B assay

NCI-H226 = test: cells; format: functional; conditions: Homo sapiens, time 48 hrs
Description: Growth inhibition of human NCI-H226 cells incubated for 48 hrs by sulforhodamine B assay

NCI-H23 = test: cells; format: functional; conditions: Homo sapiens, time 48 hrs
Description: Growth inhibition of human NCI-H23 cells incubated for 48 hrs by sulforhodamine B assay

NCI-H322M = test: cells; format: functional; conditions: Homo sapiens, time 48 hrs
Description: Growth inhibition of human NCI-H322M cells incubated for 48 hrs by sulforhodamine B assay

NCI-H460 = test: cells; format: functional; conditions: Homo sapiens, time 48 hrs
Description: Growth inhibition of human NCI-H460 cells incubated for 48 hrs by sulforhodamine B assay

HCT-116 = test: cells; format: functional; conditions: Homo sapiens, time 48 hrs
Description: Growth inhibition of human HCT-116 cells incubated for 48 hrs by sulforhodamine B assay

HCT-15 = test: cells; format: functional; conditions: Homo sapiens, time 48 hrs
Description: Growth inhibition of human HCT-15 cells incubated for 48 hrs by sulforhodamine B assay

HT-29 = test: cells; format: functional; conditions: Homo sapiens, time 48 hrs
Description: Growth inhibition of human HT-29 cells incubated for 48 hrs by sulforhodamine B assay

KM12 = test: cells; format: functional; conditions: Homo sapiens, time 48 hrs
Description: Growth inhibition of human KM12 cells incubated for 48 hrs by sulforhodamine B assay

SF-295 = test: cells; format: functional; conditions: Homo sapiens, time 48 hrs
Description: Growth inhibition of human SF-295 cells incubated for 48 hrs by sulforhodamine B assay

SNB-75 = test: cells; format: functional; conditions: Homo sapiens, time 48 hrs
Description: Growth inhibition of human SNB-75 cells incubated for 48 hrs by sulforhodamine B assay

U-251 = test: cells; format: functional; conditions: Homo sapiens, time 48 hrs
Description: Growth inhibition of human U-251 cells incubated for 48 hrs by sulforhodamine B assay

LOX IMVI [1] = test: cells; format: functional; conditions: Homo sapiens, time 48 hrs
Description: Growth inhibition of human LOX IMVI cells incubated for 48 hrs by sulforhodamine B assay

SK-MEL-28 = test: cells; format: functional; conditions: Homo sapiens, time 48 hrs
Description: Growth inhibition of human SK-MEL-28 cells incubated for 48 hrs by sulforhodamine B assay

UACC-62 = test: cells; format: functional; conditions: Homo sapiens, time 48 hrs
Description: Growth inhibition of human UACC-62 cells incubated for 48 hrs by sulforhodamine B assay

IGROV-1 = test: cells; format: functional; conditions: Homo sapiens, time 48 hrs
Description: Growth inhibition of human IGROV-1 cells incubated for 48 hrs by sulforhodamine B assay

OVCAR-3 = test: cells; format: functional; conditions: Homo sapiens, time 48 hrs
Description: Growth inhibition of human OVCAR-3 cells incubated for 48 hrs by sulforhodamine B assay

OVCAR-4 = test: cells; format: functional; conditions: Homo sapiens, time 48 hrs
Description: Growth inhibition of human OVCAR-4 cells incubated for 48 hrs by sulforhodamine B assay

OVCAR-8 = test: cells; format: functional; conditions: Homo sapiens, time 48 hrs
Description: Growth inhibition of human OVCAR-8 cells incubated for 48 hrs by sulforhodamine B assay

A498 = test: cells; format: functional; conditions: Homo sapiens, time 48 hrs
Description: Growth inhibition of human A498 cells incubated for 48 hrs by sulforhodamine B assay

RXF 393 = test: cells; format: functional; conditions: Homo sapiens, time 48 hrs
Description: Growth inhibition of human RXF 393 cells incubated for 48 hrs by sulforhodamine B assay

TK-10 = test: cells; format: functional; conditions: Homo sapiens, time 48 hrs
Description: Growth inhibition of human TK-10 cells incubated for 48 hrs by sulforhodamine B assay

UO-31 = test: cells; format: functional; conditions: Homo sapiens, time 48 hrs
Description: Growth inhibition of human UO-31 cells incubated for 48 hrs by sulforhodamine B assay

PC-3 = test: cells; format: functional; conditions: Homo sapiens, time 48 hrs
Description: Growth inhibition of human PC-3 cells incubated for 48 hrs by sulforhodamine B assay

MCF7 = test: cells; format: functional; conditions: Homo sapiens, time 48 hrs
Description: Growth inhibition of human MCF7 cells incubated for 48 hrs by sulforhodamine B assay

MDA-MB-231 = test: cells; format: functional; conditions: Homo sapiens, time 48 hrs
Description: Growth inhibition of human MDA-MB-231/ATCC cells incubated for 48 hrs by sulforhodamine B assay

Hs-578T = test: cells; format: functional; conditions: Homo sapiens, time 48 hrs
Description: Growth inhibition of human Hs-578T cells incubated for 48 hrs by sulforhodamine B assay

MDA-MB-468 = test: cells; format: functional; conditions: Homo sapiens, time 48 hrs
Description: Growth inhibition of human MDA-MB-468 cells incubated for 48 hrs by sulforhodamine B assay

786-0 = test: Growth inhibition of human 786-0 cells assessed as growth percentage at 10 uM measured after 48 hrs by sulforhodamine B assay relative to control; format: functional; conditions: read-out: Activity
[2] = system: Panel leukemia (Carcinoma cell lines); test: cells; format: functional; conditions: Homo sapiens, time 48 hrs
Description: Growth inhibition of human Panel leukemia (Carcinoma cell lines) incubated for 48 hrs by sulforhodamine B assay

cells = format: functional; conditions: Homo sapiens, Non-small cell lung cancer cell line; time 48 hrs
Description: Growth inhibition of human Non-small cell lung cancer cell line incubated for 48 hrs by sulforhodamine B assay

[3] = system: Panel colon (Carcinoma cell lines); test: cells; format: functional; conditions: Homo sapiens, time 48 hrs
Description: Growth inhibition of human Panel colon (Carcinoma cell lines) incubated for 48 hrs by sulforhodamine B assay

[4] = system: Panel CNS (Carcinoma cell lines); test: cells; format: functional; conditions: Homo sapiens, time 48 hrs
Description: Growth inhibition of human Panel CNS (Carcinoma cell lines) incubated for 48 hrs by sulforhodamine B assay

[5] = system: Panel melanoma (Carcinoma cell lines); test: cells; format: functional; conditions: Homo sapiens, time 48 hrs
Description: Growth inhibition of human Panel melanoma (Carcinoma cell lines) incubated for 48 hrs by sulforhodamine B assay

[6] = system: Panel ovarian (Carcinoma cell lines); test: cells; format: functional; conditions: Homo sapiens, time 48 hrs
Description: Growth inhibition of human Panel ovarian (Carcinoma cell lines) incubated for 48 hrs by sulforhodamine B assay

[7] = system: Panel renal (Carcinoma cell lines); test: cells; format: functional; conditions: Homo sapiens, time 48 hrs
Description: Growth inhibition of human Panel renal (Carcinoma cell lines) incubated for 48 hrs by sulforhodamine B assay

[8] = system: Panel prostate (Carcinoma cell lines); test: cells; format: functional; conditions: Homo sapiens, time 48 hrs
Description: Growth inhibition of human Panel prostate (Carcinoma cell lines) incubated for 48 hrs by sulforhodamine B assay

[9] = system: Panel breast (Carcinoma cell lines); test: cells; format: functional; conditions: Homo sapiens, time 48 hrs
Description: Growth inhibition of human Panel breast (Carcinoma cell lines) incubated for 48 hrs by sulforhodamine B assay

[10] = system: Panel NCI-60 (60 carcinoma cell lines); test: cells; format: functional; conditions: Homo sapiens, time 48 hrs
Description: Growth inhibition of human Panel NCI-60 (60 carcinoma cell lines) incubated for 48 hrs by sulforhodamine B assay

A549 = test: cells; format: functional; conditions: Homo sapiens, time 48 hrs
Description: Growth inhibition of human A549/ATCC cells incubated for 48 hrs by sulforhodamine B assay

NCI-H522 = test: cells; format: functional; conditions: Homo sapiens, time 48 hrs
Description: Growth inhibition of human NCI-H522 cells incubated for 48 hrs by sulforhodamine B assay

UACC-257 = test: cells; format: functional; conditions: Homo sapiens, time 48 hrs
Description: Growth inhibition of human UACC-257 cells incubated for 48 hrs by sulforhodamine B assay

[11] = Cytotoxicity against human HFF-1 cells assessed as cell growth inhibition at 10 uM by MTT assay relative to control; format: cell-based; conditions: read-out: GI
[12] = Cytotoxicity against human HFF-1 cells assessed as cell growth inhibition at 1 uM by MTT assay relative to control; format: cell-based; conditions: read-out: GI
[13] = Cytotoxicity against human HFF-1 cells assessed as cell growth inhibition at 0.1 uM by MTT assay relative to control; format: cell-based; conditions: read-out: GI
[14] = Cytotoxicity against human HFF-1 cells assessed as cell growth inhibition by MTT assay; format: cell-based
LOX IMVI [15] = test: Growth inhibition of human LOX IMVI cells assessed as growth percentage at 10 uM measured after 48 hrs by sulforhodamine B assay relative to control; format: functional; conditions: read-out: Activity
M14 = test: Growth inhibition of human M14 cells assessed as growth percentage at 10 uM measured after 48 hrs by sulforhodamine B assay relative to control; format: functional; conditions: read-out: Activity
[16] = read-out: LC50 (the source's name)

GI50 (CCRF-CEM): 1630 nM
GI50 (K562): 2140 nM
GI50 (NCI-H226): 3540 nM
GI50 (NCI-H23): 2000 nM
GI50 (NCI-H322M): 2520 nM
GI50 (NCI-H460): 2750 nM
GI50 (HCT-116): 2070 nM
GI50 (HCT-15): 1640 nM
GI50 (HT-29): 1740 nM
GI50 (U-251): 1800 nM
GI50 (SK-MEL-28): 1850 nM
GI50 (OVCAR-3): 2020 nM
GI50 (OVCAR-4): 3070 nM
GI50 (OVCAR-8): 4330 nM
GI50 (PC-3): 2260 nM
GI50 (MCF7): 1660 nM
GI50 (MDA-MB-231): 1820 nM
GI50 (MDA-MB-468): 2170 nM
GI50 [2]: 1930 nM
GI50 [3]: 1850 nM
GI50 [4]: 1960 nM
GI50 [5]: 1950 nM
GI50 [6]: 3010 nM
GI50 [7]: 2510 nM
GI50 [8]: 2520 nM
GI50 [9]: 2210 nM
Structure (SMILES): FC(F)(F)c1cc(Nc2ccc3c(OCCCN4CCOCC4)cccc3n2)ccc1Cl
GI50 (SR): 2140 nM
GI50 (HOP-62): 1870 nM
GI50 (HOP-92): 1240 nM
GI50 (KM12): 2070 nM
GI50 (SF-295): 1890 nM
GI50 (SNB-75): 1890 nM
GI50 (LOX IMVI [1]): 1730 nM
GI50 (UACC-62): 2050 nM
GI50 (IGROV-1): 3960 nM
GI50 (A498): 3120 nM
GI50 (RXF 393): 1780 nM
GI50 (TK-10): 3490 nM
GI50 (UO-31): 1630 nM
GI50 (Hs-578T): 2970 nM
growth at 10 µM (786-0): 37.8%
GI50 (cells): 2320 nM
GI50 [10]: 2190 nM

Structure (SMILES): CN1CCN(CCCOc2cccc3nc(Nc4cc(Cl)cc(Cl)c4)ccc23)CC1
GI50 (CCRF-CEM): 1780 nM
GI50 (K562): 1660 nM
GI50 (A549): 1980 nM
GI50 (HOP-62): 1370 nM
GI50 (HOP-92): 1590 nM
GI50 (NCI-H226): 1950 nM
GI50 (NCI-H23): 1720 nM
GI50 (NCI-H322M): 1560 nM
GI50 (NCI-H460): 1840 nM
GI50 (NCI-H522): 1640 nM
GI50 (HCT-116): 1940 nM
GI50 (HCT-15): 1420 nM
GI50 (HT-29): 1410 nM
GI50 (KM12): 1720 nM
GI50 (SF-295): 1720 nM
GI50 (U-251): 1720 nM
GI50 (LOX IMVI [1]): 1580 nM
GI50 (SK-MEL-28): 1670 nM
GI50 (UACC-257): 1970 nM
GI50 (UACC-62): 1950 nM
GI50 (IGROV-1): 1680 nM
GI50 (OVCAR-3): 1680 nM
GI50 (OVCAR-4): 2550 nM
GI50 (OVCAR-8): 1940 nM
GI50 (A498): 1780 nM
GI50 (RXF 393): 1670 nM
GI50 (TK-10): 1740 nM
GI50 (UO-31): 1490 nM
GI50 (PC-3): 1760 nM
GI50 (MCF7): 1380 nM
GI50 (MDA-MB-231): 1570 nM
GI50 (Hs-578T): 2500 nM
GI50 (MDA-MB-468): 1690 nM
inhibition at 10 µM [11]: 13.3%
inhibition at 1 µM [12]: 12%
inhibition at 0.1 µM [13]: 12.5%
GI50 [14]: > 10000 nM
growth at 10 µM (LOX IMVI [15]): -5.27%
GI50 [2]: 1800 nM
LC50 (50% lethal concentration) [2]: 100000 nM
TGI [2]: 3960 nM
GI50 (cells): 1710 nM
LC50 (50% lethal concentration) (cells): 8150 nM
TGI (cells): 3510 nM
GI50 [3]: 1680 nM
TGI [3]: 3190 nM
CC50 [3, 16]: 6100 nM
GI50 [4]: 1720 nM
TGI [4]: 3260 nM
CC50 [4, 16]: 6200 nM
GI50 [5]: 1800 nM
LC50 [5]: 6620 nM
TGI [5]: 3430 nM
GI50 [6]: 1870 nM
LC50 [6]: 9180 nM
TGI [6]: 4100 nM
GI50 [7]: 2070 nM
LC50 (lethal concentration 50%) [7]: 17100 nM
TGI [7]: 5560 nM
GI50 [8]: 1730 nM
LC50 (concentration killing 50% of cells) [8]: 5960 nM
TGI [8]: 3210 nM
GI50 [9]: 2060 nM
TGI [9]: 5670 nM
CC50 [9, 16]: 21800 nM
GI50 [10]: 1770 nM
TGI [10]: 3720 nM
CC50 [10, 16]: 8320 nM

Structure (SMILES): CC(C)c1ccc(Nc2ccc3c(OCCCN4CCOCC4)cccc3n2)cc1
growth at 10 µM (M14): 59.8%
